Reference: patent US11639493B2, “Consortium of bacteria that mineralises lipids, starches and sugars (carbohydrates) and are resistant to lethal doses of thiodicarb (carbamate) and bifenthrin (pyrethroid) for inoculation into organic matter of different origins” (priority 2018, dated 2023)

Assays:
Type in all cases: cell-based
[1] = test system: Bacillus thuringiensis; assay: Adaptation stages: mortality of Bacillus thuringiensis on growth media with thiodicarb or bifenthrin; settings: for Resistant to: FINAL: B. Thuringiensis at the end of the adaptation process
Description: (§1) Bacteria strains, nitrifiers, phosphorus solubilizers and antagonists for pathogens: • a) Arthrobacter globiformis • b) Bacillus megaterium • c) Bacillus brevis • d) Bacillus thuringiensis Preparation for Stage Development • 1. Glass material is sterilized in an autoclave. • 2. The required amount of growth media is prepared, DFA Agar, Malt Agar (Corn Agar) and (PDA) to obtain viable colonies. • 3. Lethal dose (LD) applied to a hectare is established, for thiodicarb as well as bifenthrin. 10 Petri dishes are prepared with 0.1 LD of thiodicarb of bifenthrin. Dishes are incubated at 25° C. for 72 hours with cold light. Methodology • a. Physical and chemical variables obtained in the research are maintained using traces. Petri dishes are placed inside the laminar flow chamber along with the diluted samples, to seed microorganisms in the dishes, a one ml sample of the strain is taken with an automated pipette, 10^−1 and 10^−2 solutions are performed and each solution is homogenized. • b. Having the petri dishes with the sterile and cold growth media, it is homogenized with 6 right to left movements, 6 clockwise movements, 6 counterclockwise movements and 6 front to back movements over a flat horizontal surface until the inoculum is completely integrated into the media, stand until it solidifies and each dish is covered with parafilm to avoid contamination during incubation. • c. The adapted consortium conditions are kept for the starting media (habitat), humidity, pH, temperature, chemical traceability, lighting and airing, Gram colorations and malachite green for the differentiation and observation of cellular structures. • d. Dishes with thiodicarb and Bifenthrin are placed inside the incubator at 25° C. for 72 hours with a cold light lamp. • e. Inoculated dishes are incubated for 72 hours and the bacteria growth will be recorded, the product concentration impact is determined over the plate growth (12 hours of incubation). • f. The residual impact of the product is reviewed after 7 days in the malt agar and PDA agar media. • g. If there is no growth over 10%, the process is repeated until a mortality under 90% is obtained. • h. The colony diameter is determined using a graduated ruler, data is recorded subtracting the diameter of the seeded dish, from which the effect over the mycelial growth will be determined compared to the control (not poisoned MA, denominated as percentage of inhibition of radial growth (PIRG %). • i. Progress is recorded daily and after 7 days analysis of an acceptable coverage is performed, if not, the procedure is repeated as many times as required. • j. From the 10 Petri dishes for each microorganism, the one with the lowest mortality is the one that will continue with the following study. • k. The study is performed again using this percentage until coverage increases and so on, the addition of thiodicarb and bifenthrin is alternated with the LD in intervals of 0.1 LD; all these experiments have been designed with the experimental strains and a control. • l. With the data obtained from the bacterial growth, the percentage of inhibition of gradual growth is obtained, the data is transformed for its analysis with the expression 2 arc sin. A two-way classification analysis of variance is applied and later the Turkey test is performed using a 5% probability.
(§2) Characteristics for this procedure were recorded during all stages through the following indicators: • a. Growth speed • b. Percentage of inhibition measured in Number of CFU/mm • c. Percentage of poison resistance
Beginning with habitat conditions obtained in the adaptation to organophosphate, organochlorine compounds and mercury from the microorganisms at the E-38 pH: 7.2, Humidity: 52%, thermoresistant (74° C.), […] and facultative anaerobic. These conditions are the starting point to adapt the strain to thiodicarb and bifenthrin. During all stages a cold light lamp will be used to adapt the microorganism to sunlight. […]

[2] = test system: Bacillus subtillis; assay: Adaptation stages: mortality of Bacillus subtillis on growth media with thiodicarb or bifenthrin; settings: for Resistant to: FINAL: Bacillus subtillis at the end of the adaptation process
[3] = test system: Arthrobacter globiformis; assay: Adaptation stages: mortality of Arthrobacter globiformis on growth media with thiodicarb or bifenthrin; settings: for initial mortality: summary of the adaptation tests with increasing concentrations of thiodicarb and bifenthrin
Description: as §1, §2
Habitat conditions are maintained, conditions obtained during the adaptation to organophosphorus and organochlorinated compounds and mercury of the microorganism, pH: 7.0, humidity: 35%, Temperature: Thermoresistant. These conditions are the starting point to adapt the strain to the new pollutants: thiodicarb (carbamate) and bifenthrin (pyrethroid). […]

[4] = test system: Bacillus brevis; assay: Adaptation stages: mortality of Bacillus brevis on growth media with thiodicarb or bifenthrin; settings: for Resistant to: FINAL: Bacillus brevis at the end of the adaptation process
Description: as §1, §2
Beginning with habitat conditions obtained in the adaptation to organophosphate, organochlorine compounds and mercury from the microorganisms at the E-38 pH: 7.2, Humidity: 36%, thermoresistant and facultative anaerobic. These conditions are the starting point to adapt the strain to thiodicarb and bifenthrin.
To adapt this microorganism, 51 stages were performed, beginning the process with the conventional growth media. […]

[5] = stages E-5 and E-6, 0.1 LD (0.00000006 gr)
[6] = stages E-7 and E-8, 0.2 LD (0.00000012 gr)
[7] = stages E-13 and E-14, 0.3 LD (0.00000018 gr)
[8] = stages E-21 and E-22, 0.5 LD (0.00000030 gr)
[9] = stages E-29 and E-30, 0.7 LD (0.00000036 gr)
[10] = stages E-37 and E-38, 0.9 LD (0.00000042 gr)
[11] = stages E-45 and E-46, 1.1 LD (0.00000054 gr)
[12] = stages E-3 and E-4, 0.2 LD (0.000035 gr)
[13] = stages E-9 and E-10, 0.3 LD (0.000053 gr)
[14] = stages E-11 and E-12, 0.4 LD (0.000070 gr)
[15] = stages E-15 and E-16, 0.4 LD (0.00000024 gr)
[16] = stages E-17 and E-18, 0.5 LD (0.000087 gr)
[17] = stages E-19 and E-20, 0.6 LD (0.00011 gr)
[18] = stages E-23 and E-24, 0.6 LD (0.00000036 gr)
[19] = stages E-25 and E-26, 0.7 LD (0.00012 gr)
[20] = stages E-27 and E-28, 0.8 LD (0.00014 gr)
[21] = stages E-31 and E-32, 0.8 LD (0.00000042 gr)
[22] = stages E-33 and E-34, 0.9 LD (0.00016 gr)
[23] = stages E-35 and E-36, 1 LD (0.00018 gr)
[24] = stages E-39 and E-40, 1 LD (0.00000048 gr)
[25] = stages E-41 and E-42, 1.1 LD (0.00020 gr)
[26] = stages E-43 and E-44, 1.2 LD (0.00022 gr), both stages
[27] = stages E-47 and E-48, 1.2 LD (0.00000060 gr)
[28] = stage E-1, 0.1 LD (0.0000175 gr), until day 68 of incubation
[29] = stage E-2, 0.1 LD (0.0000175 gr)

With `Cc1c(COC(=O)[C@@H]2[C@H](/C=C(\Cl)C(F)(F)F)C2(C)C)cccc1-c1ccccc1` (racemic) [bifenthrin, 2-methyl biphenyl-3-ilmetil(2)-(1RS,3RS)-3-(2-chlorine 3,3,3-trifluoropropene)-2,2-dimethyl-cyclo-propane-carboxylate] the “Resistant to: FINAL” value [1] was 1.2 LD of, the mortality [1, 5] was 68 to 65% and the mortality [1, 6] was 64 to 63%. It also gave a mortality [1, 7] of 57 to 55%, a mortality [1, 8] of 50 to 45% and a mortality [1, 9] of 36 to 33%. The mortality [1, 10] was 30 to 28%, the mortality [1, 11] was 15 to 12% and the “Resistant to: FINAL” value [2] was 1 LD of. The mortality [2, 5] was 72 to 71%, the mortality [2, 6] was 70 to 68% and the mortality [2, 7] was 65%. The mortality [2, 8] was 47 to 45%, the mortality [2, 9] was 25 to 23% and the mortality [2, 10] was 8 to 6%. It also gave a mortality [3, 5] of 84%, a mortality [3, 6] of 75% and a mortality [3, 7] of 70%. It also gave a mortality [3, 8] of 56%, a mortality [3, 9] of 40% and a mortality [3, 10] of 25%. The initial mortality [3] was roughly 82%, the “Resistant to: FINAL” value [4] was 1.3 LD of and the mortality [4, 5] was 73%. It also gave a mortality [4, 6] of 70 to 68%, a mortality [4, 7] of 67% and a mortality [4, 8] of 55%. For the same compound, the mortality [4, 9] was 44%, the mortality [4, 10] was 26% and the mortality [4, 11] was 20%.
With `CS/C(C)=N\OC(=O)N(C)SN(C)C(=O)O/N=C(\C)SC` [thiodicarb] the “Resistant to: FINAL” value [1] was 1.2 LD of, the mortality ([1]; stages E-1 and E-2, 0.1 LD (0.0000175 gr), until day 45 of incubation) was 72 to 70% and the mortality [1, 12] was 70 to 68%. It also gave a mortality [1, 13] of 65 to 61%, a mortality [1, 14] of 57 to 55% and a mortality [1, 15] of 52 to 50%. For the same compound, the mortality [1, 16] was 52 to 50%, the mortality [1, 17] was 50 to 45% and the mortality [1, 18] was 44 to 42%. The mortality [1, 19] was 44 to 40%, the mortality [1, 20] was 36 to 35% and the mortality [1, 21] was 30 to 28%. It also gave a mortality [1, 22] of 30%, a mortality [1, 23] of 25% and a mortality [1, 24] of 18 to 17%. The mortality [1, 25] was 18 to 17%, the mortality [1, 26] was 14% and the mortality [1, 27] was 10 to 7%. For the same compound, the “Resistant to: FINAL” value [2] was 1 LD of, the mortality [2, 28] was 82% and the mortality [2, 29] was 80%. The mortality [2, 12] was 75 to 72%, the mortality [2, 13] was 66 to 63% and the mortality [2, 14] was 64 to 62%. For the same compound, the mortality [2, 15] was 64 to 60%, the mortality [2, 16] was 59 to 54% and the mortality [2, 17] was 52 to 50%. It also gave a mortality [2, 18] of 40 to 35%, a mortality [2, 19] of 35 to 30% and a mortality [2, 20] of 28 to 25%. The mortality [2, 21] was 20 to 18%, the mortality [2, 22] was 18 to 15% and the mortality [2, 23] was 12 to 9%. The mortality [2, 24] was 5%, the mortality ([3]; stages E-1 and E-2, 0.1 LD (0.0000175 gr) in growth media, until incubation day 45) was 86% and the mortality [3, 12] was 66 to 80%. It also gave a mortality [3, 13] of 74%, a mortality [3, 14] of 71% and a mortality [3, 15] of 62%. The mortality [3, 16] was 63%, the mortality [3, 17] was 58% and the mortality [3, 18] was 48%. The mortality [3, 19] was 48%, the mortality [3, 20] was 40% and the mortality [3, 21] was 36%. For the same compound, the mortality [3, 22] was 32%, the mortality [3, 23] was 25% and the mortality [3, 24] was 18%. For the same compound, the initial mortality [3] was roughly 82%, the “Resistant to: FINAL” value [4] was 1.3 LD of and the mortality [4, 28] was 82%. It also gave a mortality [4, 29] of 78%, a mortality [4, 12] of 72% and a mortality [4, 13] of 68%. The mortality [4, 14] was 67%, the mortality [4, 15] was 60% and the mortality [4, 16] was 59 to 54%. It also gave a mortality [4, 17] of 55%, a mortality [4, 18] of 51% and a mortality [4, 19] of 50%. The mortality [4, 20] was 46%, the mortality [4, 21] was 42% and the mortality [4, 22] was 38%. For the same compound, the mortality [4, 23] was 28%, the mortality [4, 24] was 20% and the mortality [4, 25] was 28%. For the same compound, the mortality [4, 26] was 22%, the mortality [4, 27] was 12% and the mortality ([4]; stages E-49 and E-50, 1.3 LD (0.00024 gr)) was 10%.
